Experimental data published in article PMC9090415, “Discovery of small molecule inhibitors of Plasmodium falciparum apicoplast DNA polymerase” (Journal of Enzyme Inhibition and Medicinal Chemistry, 2022).

Biological target: P. falciparum apicoplast DNA polymerase (Pf-apPOL) (Plasmodium falciparum, UniProt Q8ILY1)
Test: Fluorescence-based high-throughput DNA polymerase assay (molecular beacon), primary screen and dose-response
Type: biochemical
Conditions: for DNA Pol: unit not given, 90 min, 10 µM
Protocol: The HT assay employs a molecular beacon, a stem-loop DNA template with a Cy3 dye and the Black Hole Quencher on the 3′ and 5′ ends of the DNA, respectively. Pf-apPOL concentration is based on a calculated absorptivity of ε280 = 56750 M^−1 cm^−1. Reactions were carried out at 25 °C, using Corning 3575 […] (well-volume, 20 µL). Assays testing for compound inhibition composed of reaction buffer (pH 7.9 in 50 mM potassium acetate, 20 mM Tris-acetate and 10 mM magnesium acetate), Pf-apPOL (20 nM), DNA substrate (20 nM), dNTPs (6 µM), and compound (10 µM in DMSO). The DNA and nucleotide substrates (dNTPs) were at concentrations of 20 nM and 6 µM, respectively, in the assay. Pf-apPOL was incubated in the reaction buffer with dNTPs and the compound of interest (10 µM, in the assay) at 25 °C for 10 min. The DNA substrate was then added and the reaction was allowed to proceed for 90 min at 25 °C.
Each assay plate contained 16 negative controls (no Pf-apPOL, DMSO present) and 16 positive controls (Pf-apPOL present, no DMSO). The fluorescence of each well was determined using a BioTek Synergy Neo fluorescence plate reader using excitation and emission wavelengths of 555 and 570 nm, respectively.
In the above, Min is the average of fluorescence emission of the negative controls (substrate only), Max the average fluorescence emission from the positive controls (enzyme + substrate), and Test the emission from the assays in the presence of compounds (enzyme + compound + substrates). […] […] The IC50 of each compound was determined using Equation (2): (2) IC50= Vmax/(1+ (I/IC50)^n)
In the above, n measures cooperativity, with n > 1 indicating synergistic binding of more than a single molecule of the compound.
To identify apPOL inhibitors we utilised our previously developed high-throughput DNA polymerase assay. The HT assay is based on a molecular beacon DNA template that forms a stem-loop with a Cy3 dye and the Black Hole Quencher on the 3′ and 5′ ends of the DNA, respectively. DNA polymerase activity extends an annealed primer through the stem region, displacing the fluorophore from the quencher, thereby increasing its fluorescence (Figure 1(A)). The assay accurately recapitulates the kinetic behaviour of apPOL, as measured through more conventional low-throughput gel-based assays. The Z′ factor for the assay described here was 0.9 across all plates (data not shown).
Figure 1. High-throughput screening. (A) The fluorescent-based DNA polymerase assay used to screen the compound libraries. The DNA template strand is a hairpin loop with a primer annealed to the loop. The 3’ end of the primer is 11 bases away from the 6 bp duplex. Strand displacement activity of the DNA polymerase separates the Cy3 dye from the Black hole quencher leading to an increase in fluorescent signal. (B) The high-throughput assay workflow. The DNA polymerase is incubated with […] compound for 10 min prior to addition of the hairpin substrate. The reaction is quenched at 3 different time points and the fluorescent signal is measured and % inhibition is determined using the provided equation.

[1] = DRC-2, 90', concentration 40 (unit not given)
[2] = DRC-2, 180', concentration 40 (unit not given)

P. falciparum apicoplast DNA polymerase (Pf-apPOL), sequence (Q8ILY1 entry or part of it): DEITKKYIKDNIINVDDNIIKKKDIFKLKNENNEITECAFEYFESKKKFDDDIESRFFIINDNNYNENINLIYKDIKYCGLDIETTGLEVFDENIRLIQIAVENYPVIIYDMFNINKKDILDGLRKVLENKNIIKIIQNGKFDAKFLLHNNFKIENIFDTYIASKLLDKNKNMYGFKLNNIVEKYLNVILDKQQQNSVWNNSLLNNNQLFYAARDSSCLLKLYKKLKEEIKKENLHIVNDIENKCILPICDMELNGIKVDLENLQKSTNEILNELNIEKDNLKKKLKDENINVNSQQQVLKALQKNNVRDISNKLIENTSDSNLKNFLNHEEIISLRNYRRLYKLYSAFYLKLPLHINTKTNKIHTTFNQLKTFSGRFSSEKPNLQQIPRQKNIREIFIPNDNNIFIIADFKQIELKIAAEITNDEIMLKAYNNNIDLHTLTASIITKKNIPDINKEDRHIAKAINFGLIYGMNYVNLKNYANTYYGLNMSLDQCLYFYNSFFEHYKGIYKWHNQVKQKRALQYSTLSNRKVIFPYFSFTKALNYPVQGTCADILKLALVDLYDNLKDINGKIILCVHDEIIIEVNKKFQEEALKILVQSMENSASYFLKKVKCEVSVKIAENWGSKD

With `Cc1ccc(CCNC(=O)c2cnn3c(O)c(Cc4ccccc4F)c(C)nc23)cc1` [KU0097142] the “% inhibition Apo pol 10'” value (DRC-1, concentration 2.5) was -13.7377%, the “% inhibition Apo pol 10'” value (DRC-1, concentration 5) was -17.1874% and the “% inhibition Apo pol 10'” value (DRC-1, concentration 10) was -18.6102%. For the same compound, the “% inhibition Apo pol 10'” value (DRC-1, concentration 20) was 32.4745%, the “% inhibition Apo pol 10'” value (DRC-1, concentration 40) was 80.8586% and the “% inhibition Apo pol 10'” value (DRC-1, concentration 80) was 88.0629%. The “% inhibition Apol 90'” value (DRC-1, 90', concentration 2.5) was -9.394%, the “% inhibition Apol 90'” value (DRC-1, 90', concentration 5) was -5.811% and the “% inhibition Apol 90'” value (DRC-1, 90', concentration 10) was -11.7224%. The “% inhibition Apol 90'” value (DRC-1, 90', concentration 20) was 36.3215%, the “% inhibition Apol 90'” value (DRC-1, 90', concentration 40) was 78.277% and the “% inhibition Apol 90'” value (DRC-1, 90', concentration 80) was 85.9002%. For the same compound, the “% inhibition apPOL 180'” value (DRC-1, 180', concentration 2.5) was -10.2215%, the “% inhibition apPOL 180'” value (DRC-1, 180', concentration 5) was -8.372% and the “% inhibition apPOL 180'” value (DRC-1, 180', concentration 10) was -12.5375%. The “% inhibition apPOL 180'” value (DRC-1, 180', concentration 20) was 23.0268%, the “% inhibition apPOL 180'” value (DRC-1, 180', concentration 40) was 70.309% and the “% inhibition apPOL 180'” value (DRC-1, 180', concentration 80) was 81.7781%. For the same compound, the “% inhibition Apol 40'” value (DRC-2, 40', concentration 5 (unit not given)) was 17%, the “% inhibition Apol 40'” value (DRC-2, 40', concentration 40 (unit not given)) was 67% and the “% inhibition ApPOL 90'” value (DRC-2, 90', concentration 5 (unit not given)) was 17%. The “% inhibition ApPOL 90'” value [1] was 67%, the “% inhibition apPOL 180'” value [2] was 62% and the “% inhibition Apo pol 5'” value (DRC-2, concentration 2.5) was -3.79%. For the same compound, the “% inhibition Apo pol 5'” value (DRC-2, concentration 5) was 11%, the “% inhibition Apo pol 5'” value (DRC-2, concentration 10) was 15% and the “% inhibition Apo pol 5'” value (DRC-2, concentration 20) was 45%. The “% inhibition Apo pol 5'” value (DRC-2, concentration 40) was 57%, the “% inhibition Apo pol 5'” value (DRC-2, concentration 80) was 62% and the “% inhibition Apo pol 5'” value (DRC-2, concentration 80 (unit not given)) was 62%. The “% inhibition Apol 40'” value (DRC-2, 40', concentration 2.5) was -0.896%, the “% inhibition Apol 40'” value (DRC-2, 40', concentration 5) was 17% and the “% inhibition Apol 40'” value (DRC-2, 40', concentration 10) was 21%. For the same compound, the “% inhibition Apol 40'” value (DRC-2, 40', concentration 20) was 54%, the “% inhibition Apol 40'” value (DRC-2, 40', concentration 40) was 67% and the “% inhibition Apol 40'” value (DRC-2, 40', concentration 80) was 71%. For the same compound, the “% inhibition ApPOL 90'” value (DRC-2, 90', concentration 2.5) was -1.26%, the “% inhibition ApPOL 90'” value (DRC-2, 90', concentration 5) was 17% and the “% inhibition ApPOL 90'” value (DRC-2, 90', concentration 10) was 19%. For the same compound, the “% inhibition ApPOL 90'” value (DRC-2, 90', concentration 20) was 52%, the “% inhibition ApPOL 90'” value (DRC-2, 90', concentration 40) was 67% and the “% inhibition ApPOL 90'” value (DRC-2, 90', concentration 80) was 72%. For the same compound, the “% inhibition apPOL 180'” value (DRC-2, 180', concentration 2.5) was -2.35%, the “% inhibition apPOL 180'” value (DRC-2, 180', concentration 5) was 12% and the “% inhibition apPOL 180'” value (DRC-2, 180', concentration 10) was 13%. The “% inhibition apPOL 180'” value (DRC-2, 180', concentration 20) was 43%, the “% inhibition apPOL 180'” value (DRC-2, 180', concentration 40) was 62% and the “% inhibition apPOL 180'” value (DRC-2, 180', concentration 80) was 69%. The “DNA Pol” value (primary screen value of the 186 hits) was 48 and the “DNA Pol” value (primary screen value, head "DNA Pol") was 48.

For `Cc1ccc(C)c(CSc2nc(C3CCCCC3)c(C#N)c(=O)[nH]2)c1` [Molecule 6, N#Cc1c(=O)[nH]c(nc1C1CCCCC1)SCc1cc(C)ccc1C], the “DNA Pol” value ('DNA Pol' of the 186 hits list (primary screen result)) was 98, the “% inhibition Apo pol 10'” value (DRC-1, concentration 2.5) was 19.6577% and the “% inhibition Apo pol 10'” value (DRC-1, concentration 5) was 38.2184%. The “% inhibition Apo pol 10'” value (DRC-1, concentration 10) was 71.2419%, the “% inhibition Apo pol 10'” value (DRC-1, concentration 20) was 88.8023% and the “% inhibition Apo pol 10'” value (DRC-1, concentration 40) was 92.9931%. The “% inhibition Apo pol 10'” value (DRC-1, concentration 80) was 97.5171%, the “% inhibition Apol 90'” value (DRC-1, 90', concentration 2.5) was 7.563% and the “% inhibition Apol 90'” value (DRC-1, 90', concentration 5) was 29.5473%. For the same compound, the “% inhibition Apol 90'” value (DRC-1, 90', concentration 10) was 66.2339%, the “% inhibition Apol 90'” value (DRC-1, 90', concentration 20) was 83.4926% and the “% inhibition Apol 90'” value (DRC-1, 90', concentration 40) was 89.6774%. For the same compound, the “% inhibition Apol 90'” value (DRC-1, 90', concentration 80) was 97.7776%, the “% inhibition apPOL 180'” value (DRC-1, 180', concentration 2.5) was -0.2009% and the “% inhibition apPOL 180'” value (DRC-1, 180', concentration 5) was 17.3135%. For the same compound, the “% inhibition apPOL 180'” value (DRC-1, 180', concentration 10) was 54.7895%, the “% inhibition apPOL 180'” value (DRC-1, 180', concentration 20) was 77.2836% and the “% inhibition apPOL 180'” value (DRC-1, 180', concentration 40) was 85.5131%. The “% inhibition apPOL 180'” value (DRC-1, 180', concentration 80) was 97.5591%, the “% inhibition Apol 40'” value (DRC-2, 40', concentration 2.5 (unit not given)) was 13% and the “% inhibition ApPOL 90'” value [1] was 80%. For the same compound, the “% inhibition apPOL 180'” value (DRC-2, 180', concentration 5 (unit not given)) was 10%, the “% inhibition apPOL 180'” value [2] was 80% and the “% inhibition apPOL 180'” value (DRC-2, 180', concentration 80 (unit not given)) was 80%. For the same compound, the “% inhibition Apo pol 5'” value (DRC-2, concentration 2.5) was 9%, the “% inhibition Apo pol 5'” value (DRC-2, concentration 5) was 13% and the “% inhibition Apo pol 5'” value (DRC-2, concentration 5 (unit not given)) was 13%. For the same compound, the “% inhibition Apo pol 5'” value (DRC-2, concentration 20) was 59%, the “% inhibition Apo pol 5'” value (DRC-2, concentration 40) was 63% and the “% inhibition Apo pol 5'” value (DRC-2, concentration 80) was 61%. The “% inhibition Apol 40'” value (DRC-2, 40', concentration 2.5) was 13%, the “% inhibition Apol 40'” value (DRC-2, 40', concentration 5) was 18% and the “% inhibition Apol 40'” value (DRC-2, 40', concentration 10) was 51%. The “% inhibition Apol 40'” value (DRC-2, 40', concentration 20) was 69%, the “% inhibition Apol 40'” value (DRC-2, 40', concentration 40) was 77% and the “% inhibition Apol 40'” value (DRC-2, 40', concentration 80) was 75%. For the same compound, the “% inhibition ApPOL 90'” value (DRC-2, 90', concentration 2.5) was 10%, the “% inhibition ApPOL 90'” value (DRC-2, 90', concentration 2.5 (unit not given)) was 10% and the “% inhibition ApPOL 90'” value (DRC-2, 90', concentration 5) was 16%. The “% inhibition ApPOL 90'” value (DRC-2, 90', concentration 10) was 50%, the “% inhibition ApPOL 90'” value (DRC-2, 90', concentration 20) was 71% and the “% inhibition ApPOL 90'” value (DRC-2, 90', concentration 40) was 80%. The “% inhibition ApPOL 90'” value (DRC-2, 90', concentration 80) was 78%, the “% inhibition apPOL 180'” value (DRC-2, 180', concentration 2.5) was 5.53% and the “% inhibition apPOL 180'” value (DRC-2, 180', concentration 5) was 10%. For the same compound, the “% inhibition apPOL 180'” value (DRC-2, 180', concentration 20) was 67%, the “% inhibition apPOL 180'” value (DRC-2, 180', concentration 40) was 80% and the “% inhibition apPOL 180'” value (DRC-2, 180', concentration 80) was 80%. For the same compound, the “DNA Pol” value (primary screen value of the library well) was 98.
